Values quoted from earlier work, collected in publication PMC4077824, “Conserved Prosegment Residues Stabilize a Late-Stage Folding Transition State of Pepsin Independently of Ground States” (PLoS ONE, 2014).
Where no end group is shown, it is not given here.

What was measured:
native pepsin (Np) = molecular target: T1, native pepsin (Np) (Sus scrofa, UniProt P00791); conditions: ref [7]; cited from earlier work
T1 construct: Only the R13 and K36 side-chains of the PS form hydrogen bonds with the mature pepsin domain; purchased Sigma (St. Louis, MO, USA)
T1 sequence (P00791 60-385): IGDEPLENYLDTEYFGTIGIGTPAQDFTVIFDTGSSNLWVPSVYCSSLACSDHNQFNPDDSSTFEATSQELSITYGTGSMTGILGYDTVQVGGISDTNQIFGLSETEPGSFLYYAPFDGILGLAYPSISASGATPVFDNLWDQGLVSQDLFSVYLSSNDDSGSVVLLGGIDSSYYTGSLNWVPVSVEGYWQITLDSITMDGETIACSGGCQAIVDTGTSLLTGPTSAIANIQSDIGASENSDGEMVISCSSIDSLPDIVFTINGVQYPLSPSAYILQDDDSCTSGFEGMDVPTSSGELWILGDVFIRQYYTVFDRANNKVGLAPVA
Description: (§1) Figure 1 Zymogen-derived proteins deviate from common trends in protein folding. (A) Comparison of the non- and PS-catalyzed folding of αLP [8], SGPB [5] and pepsin [7]. (B) Relation between topology and folding rate for a number of two- and three-state folding proteins (circles, data taken from, [21], [22]). The folding rate of αLP (squares), SGPB (triangles) and pepsin (stars) is accelerated to the value (hollow points) expected based on the topology, only when the PS is included. (C) Reaction scheme of pepsin PS-catalyzed folding. […] It seems likely that the PS has achieved this higher affinity for the TS via a concerted optimization of side-chain packing, hydrogen bonding and electrostatics, as evidenced by polar, hydrophobic and charged groups selectively stabilizing the TS ( Fig 3A ). Furthermore, this concerted optimization likely involves both non-native and strengthened native contacts, given the range of interactions involved. In the native fold [ ...

refolded pepsin (Rp) = molecular target: T2, refolded pepsin (Rp) (Sus scrofa, UniProt P00791); conditions: ref [7]; cited from earlier work
T2 construct: Only the R13 and K36 side-chains of the PS form hydrogen bonds with the mature pepsin domain; purchased Sigma (St. Louis, MO, USA)
T2 sequence (P00791 60-385): as above
Description: as §1

Sequence: LVKVPLVRKKSLRQNLIKNGKLKDFLKTHKHNPASKYFPEAAAL [WT]
- affinity for Np (native pepsin (Np)): nano-
- affinity for Rp (refolded pepsin (Rp)): micromolar
